# Measurements from paper PMC10294644 (Cell, 2020).
# Entries after “also recorded” stand apart in the source; their conditions may differ.
# Experiments:
# CSK = CSK (Homo sapiens, UniProt P41240); test: Global quantitative proteomics; assay type: cell-based; settings: MOLT-4 cells, 1 μM, 5 h
# LIMK2 = LIMK2 (Homo sapiens, UniProt P53671); test: Global quantitative proteomics; assay type: cell-based; settings: MOLT-4 cells, 1 μM, 5 h, relative protein abundance
# CDK17 = CDK17 (Homo sapiens, UniProt Q00537); test: Global quantitative proteomics; assay type: cell-based; settings: MOLT-4 cells, 1 μM, 5 h, relative protein abundance
# CDK17, sequence (Q00537 whole entry): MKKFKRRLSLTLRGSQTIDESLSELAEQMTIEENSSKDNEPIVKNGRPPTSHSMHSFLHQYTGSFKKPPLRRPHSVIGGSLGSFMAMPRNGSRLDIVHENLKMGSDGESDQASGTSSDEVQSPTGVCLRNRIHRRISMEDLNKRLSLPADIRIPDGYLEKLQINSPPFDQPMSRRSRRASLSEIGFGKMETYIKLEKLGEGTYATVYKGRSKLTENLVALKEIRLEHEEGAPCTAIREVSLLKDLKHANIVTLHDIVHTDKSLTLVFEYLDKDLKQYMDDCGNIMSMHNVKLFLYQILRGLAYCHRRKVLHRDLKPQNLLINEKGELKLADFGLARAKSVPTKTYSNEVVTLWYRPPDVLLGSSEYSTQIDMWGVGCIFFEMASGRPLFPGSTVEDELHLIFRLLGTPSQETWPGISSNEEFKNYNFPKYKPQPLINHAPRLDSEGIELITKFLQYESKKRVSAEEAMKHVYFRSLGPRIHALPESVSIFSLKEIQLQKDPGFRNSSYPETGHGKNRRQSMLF
# YES1 = YES1 (Homo sapiens, UniProt P07947); assay type: cell-based; settings: HEK293T cells, 1 μM, 5 h
# YES1, sequence (P07947 2-543 limits assumed): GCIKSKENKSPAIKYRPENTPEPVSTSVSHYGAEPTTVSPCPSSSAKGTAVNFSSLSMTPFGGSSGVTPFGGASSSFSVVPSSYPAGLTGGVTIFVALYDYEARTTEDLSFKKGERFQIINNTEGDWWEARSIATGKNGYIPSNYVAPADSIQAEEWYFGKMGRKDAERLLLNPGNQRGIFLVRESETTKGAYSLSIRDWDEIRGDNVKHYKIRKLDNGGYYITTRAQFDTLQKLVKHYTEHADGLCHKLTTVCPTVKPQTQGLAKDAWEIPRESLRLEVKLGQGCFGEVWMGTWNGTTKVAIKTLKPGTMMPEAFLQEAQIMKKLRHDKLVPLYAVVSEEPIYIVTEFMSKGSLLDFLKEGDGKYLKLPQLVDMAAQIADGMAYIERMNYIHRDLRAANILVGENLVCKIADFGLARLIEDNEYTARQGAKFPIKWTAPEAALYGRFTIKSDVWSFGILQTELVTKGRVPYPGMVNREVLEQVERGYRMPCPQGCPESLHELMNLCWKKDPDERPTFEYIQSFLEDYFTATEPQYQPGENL
# YES1, sequence (Q96SW2 whole entry partner): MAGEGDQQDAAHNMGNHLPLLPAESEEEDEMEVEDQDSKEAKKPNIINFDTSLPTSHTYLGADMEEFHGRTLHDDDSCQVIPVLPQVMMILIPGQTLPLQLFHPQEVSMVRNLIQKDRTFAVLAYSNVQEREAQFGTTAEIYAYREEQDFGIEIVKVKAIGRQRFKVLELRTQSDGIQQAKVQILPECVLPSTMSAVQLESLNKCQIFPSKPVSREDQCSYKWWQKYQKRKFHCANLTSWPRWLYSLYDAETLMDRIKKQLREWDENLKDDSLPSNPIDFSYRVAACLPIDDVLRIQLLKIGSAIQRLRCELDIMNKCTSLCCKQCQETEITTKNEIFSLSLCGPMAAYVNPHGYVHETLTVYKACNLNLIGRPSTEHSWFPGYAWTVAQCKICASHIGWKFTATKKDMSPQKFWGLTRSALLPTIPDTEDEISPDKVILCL
# YES1, sequence (Q16531 2-1140 partner limits assumed): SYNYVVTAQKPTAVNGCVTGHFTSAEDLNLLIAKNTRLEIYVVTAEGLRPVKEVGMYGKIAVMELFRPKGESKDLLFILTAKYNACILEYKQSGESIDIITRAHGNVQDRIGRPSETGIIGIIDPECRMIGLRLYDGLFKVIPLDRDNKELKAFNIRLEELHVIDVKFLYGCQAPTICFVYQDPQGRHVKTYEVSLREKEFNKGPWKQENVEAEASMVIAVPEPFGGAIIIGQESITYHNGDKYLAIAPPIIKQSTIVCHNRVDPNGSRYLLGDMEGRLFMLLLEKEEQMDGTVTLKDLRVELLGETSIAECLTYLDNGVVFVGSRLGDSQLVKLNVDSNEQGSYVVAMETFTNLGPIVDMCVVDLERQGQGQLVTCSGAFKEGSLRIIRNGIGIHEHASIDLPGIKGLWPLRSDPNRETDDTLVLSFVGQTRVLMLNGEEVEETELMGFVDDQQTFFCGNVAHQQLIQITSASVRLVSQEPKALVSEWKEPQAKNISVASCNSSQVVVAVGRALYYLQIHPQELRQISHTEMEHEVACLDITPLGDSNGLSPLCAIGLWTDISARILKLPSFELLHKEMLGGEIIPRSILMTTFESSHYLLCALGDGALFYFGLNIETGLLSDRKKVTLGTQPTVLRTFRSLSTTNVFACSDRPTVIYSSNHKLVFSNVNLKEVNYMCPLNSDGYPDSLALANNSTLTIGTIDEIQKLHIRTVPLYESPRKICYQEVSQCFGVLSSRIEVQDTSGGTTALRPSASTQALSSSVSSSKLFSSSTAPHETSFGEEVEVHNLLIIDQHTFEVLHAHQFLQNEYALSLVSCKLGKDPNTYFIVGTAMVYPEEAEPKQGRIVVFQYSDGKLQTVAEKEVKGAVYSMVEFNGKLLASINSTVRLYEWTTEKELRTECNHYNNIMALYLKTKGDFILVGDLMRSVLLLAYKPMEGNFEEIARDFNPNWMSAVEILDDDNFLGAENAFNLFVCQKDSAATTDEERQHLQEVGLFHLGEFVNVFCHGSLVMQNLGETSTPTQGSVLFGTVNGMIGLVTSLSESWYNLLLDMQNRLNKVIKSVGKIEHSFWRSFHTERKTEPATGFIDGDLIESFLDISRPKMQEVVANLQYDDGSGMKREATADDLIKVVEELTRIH
# GCK [1] = target: T1, GCK (Homo sapiens, UniProt Q12851); test: KiNativ live cell profiling; assay type: cell-based; settings: CRBN−/− MOLT-4 cells, 1 μM, 5 h
# T1 sequence (Q12851 1-820): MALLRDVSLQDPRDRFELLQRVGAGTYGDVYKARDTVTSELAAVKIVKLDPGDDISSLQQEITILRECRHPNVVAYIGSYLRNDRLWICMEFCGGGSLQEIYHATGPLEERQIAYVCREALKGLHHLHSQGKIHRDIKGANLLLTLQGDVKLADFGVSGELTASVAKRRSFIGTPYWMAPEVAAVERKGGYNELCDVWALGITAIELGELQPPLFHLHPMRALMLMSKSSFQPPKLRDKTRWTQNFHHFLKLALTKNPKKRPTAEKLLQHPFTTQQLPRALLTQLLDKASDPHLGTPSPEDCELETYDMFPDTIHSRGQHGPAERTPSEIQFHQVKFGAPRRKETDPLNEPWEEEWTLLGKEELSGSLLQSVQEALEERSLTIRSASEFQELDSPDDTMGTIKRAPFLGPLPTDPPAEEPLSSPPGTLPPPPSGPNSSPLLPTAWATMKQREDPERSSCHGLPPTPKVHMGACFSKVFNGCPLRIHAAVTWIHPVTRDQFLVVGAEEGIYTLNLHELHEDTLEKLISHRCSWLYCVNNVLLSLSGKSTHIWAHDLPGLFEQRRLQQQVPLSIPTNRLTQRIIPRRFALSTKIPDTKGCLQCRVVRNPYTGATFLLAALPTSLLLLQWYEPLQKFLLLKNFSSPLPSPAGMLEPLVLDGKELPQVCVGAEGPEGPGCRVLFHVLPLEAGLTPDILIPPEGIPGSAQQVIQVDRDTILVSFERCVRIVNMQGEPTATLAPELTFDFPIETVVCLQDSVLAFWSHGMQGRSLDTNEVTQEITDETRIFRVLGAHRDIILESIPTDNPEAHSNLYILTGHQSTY
# GCK [2] = target: T1, GCK; test: Global quantitative proteomics, degradation of GCK; assay type: cell-based; settings: 1 μM, 5 h
# IRAK1 = IRAK1 (Homo sapiens, UniProt P51617); assay type: cell-based; settings: HEK293T cells, 1 μM, 5 h
# LYN = LYN (Homo sapiens, UniProt P07948); assay type: cell-based; settings: HEK293T cells, 1 μM, 5 h
# LYN, sequence (P07948 2-512 limits assumed): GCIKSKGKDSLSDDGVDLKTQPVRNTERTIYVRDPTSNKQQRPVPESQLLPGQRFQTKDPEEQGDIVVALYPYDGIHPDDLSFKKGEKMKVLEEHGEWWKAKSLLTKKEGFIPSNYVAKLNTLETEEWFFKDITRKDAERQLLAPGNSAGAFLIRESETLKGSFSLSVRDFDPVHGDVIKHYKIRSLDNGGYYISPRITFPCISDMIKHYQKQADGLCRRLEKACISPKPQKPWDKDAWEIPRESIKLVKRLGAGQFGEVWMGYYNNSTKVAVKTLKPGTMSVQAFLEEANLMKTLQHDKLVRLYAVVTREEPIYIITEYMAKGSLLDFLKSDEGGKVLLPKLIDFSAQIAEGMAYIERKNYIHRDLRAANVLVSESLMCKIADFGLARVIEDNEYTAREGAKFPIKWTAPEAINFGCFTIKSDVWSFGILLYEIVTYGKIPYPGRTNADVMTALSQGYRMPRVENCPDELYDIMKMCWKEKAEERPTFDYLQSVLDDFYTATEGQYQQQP
# LYN, sequence (Q96SW2 whole entry partner): as the sequence (Q96SW2 whole entry partner) above
# LYN, sequence (Q16531 2-1140 partner limits assumed): as the sequence (Q16531 2-1140 partner limits assumed) above
# BUB1 = BUB1 (Homo sapiens, UniProt O43683); assay type: cell-based; settings: MOLT-4 and MM.1S cell lines
# FLAG-tagged CRBN = FLAG-tagged CRBN (Homo sapiens, UniProt Q96SW2); test: FLAG-CRBN AP-MS, proteins enriched with CRBN; assay type: cell-based; settings: HEK293T cells, 1 μM, 5 h, relative to SB1-G-187 and WH-10417–099
# FLAG-tagged CRBN, sequence (Q96SW2 whole entry): as the sequence (Q96SW2 whole entry partner) above
# FLAG-tagged CRBN, sequence (Q16531 2-1140 partner limits assumed): as the sequence (Q16531 2-1140 partner limits assumed) above
# MOLT-4 cells = test: Time-course RNA-sequencing; assay type: cell-based, human; settings: for transcript levels: 1 μM
# AURKA (Aurora A) = target: T2, AURKA (Aurora A) (Homo sapiens, UniProt O14965); test: Global quantitative proteomics and immunoblot, degradation of AURKA; assay type: cell-based; settings: MOLT-4 cells 1 μM 5 h proteomics; validated by immunoblotting in MM.1S cells
# T2 sequence (O14965 1-403): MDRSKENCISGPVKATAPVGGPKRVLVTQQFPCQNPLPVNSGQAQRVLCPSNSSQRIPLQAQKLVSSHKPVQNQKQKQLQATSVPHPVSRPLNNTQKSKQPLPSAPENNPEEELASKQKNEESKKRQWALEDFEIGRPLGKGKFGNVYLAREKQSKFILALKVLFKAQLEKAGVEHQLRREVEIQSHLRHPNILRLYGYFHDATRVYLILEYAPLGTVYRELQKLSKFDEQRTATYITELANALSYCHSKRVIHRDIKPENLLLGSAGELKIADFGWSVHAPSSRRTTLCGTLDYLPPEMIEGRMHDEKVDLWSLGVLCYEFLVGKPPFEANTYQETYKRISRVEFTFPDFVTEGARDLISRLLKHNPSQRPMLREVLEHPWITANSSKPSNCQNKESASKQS
# [3] = tested on: MM.1S multiple myeloma cell line; test: CellTiter-Glo viability assay; assay type: cell-based, human; settings: MM.1S cells, 72 h, compared with parental inhibitor alisertib
# CSK, sequence (P41240 whole entry): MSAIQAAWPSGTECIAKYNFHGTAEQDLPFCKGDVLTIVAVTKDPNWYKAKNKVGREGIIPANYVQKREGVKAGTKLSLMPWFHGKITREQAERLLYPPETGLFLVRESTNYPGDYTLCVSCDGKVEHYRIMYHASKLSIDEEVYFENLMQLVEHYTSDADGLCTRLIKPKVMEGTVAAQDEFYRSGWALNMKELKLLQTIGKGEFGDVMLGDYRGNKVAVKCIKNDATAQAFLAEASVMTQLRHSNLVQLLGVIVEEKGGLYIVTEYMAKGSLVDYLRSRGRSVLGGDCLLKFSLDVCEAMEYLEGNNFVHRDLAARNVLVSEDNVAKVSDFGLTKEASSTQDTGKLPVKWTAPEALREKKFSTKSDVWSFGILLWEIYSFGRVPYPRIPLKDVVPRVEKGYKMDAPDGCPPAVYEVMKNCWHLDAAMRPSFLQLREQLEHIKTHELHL
# LIMK2, sequence (P53671 whole entry): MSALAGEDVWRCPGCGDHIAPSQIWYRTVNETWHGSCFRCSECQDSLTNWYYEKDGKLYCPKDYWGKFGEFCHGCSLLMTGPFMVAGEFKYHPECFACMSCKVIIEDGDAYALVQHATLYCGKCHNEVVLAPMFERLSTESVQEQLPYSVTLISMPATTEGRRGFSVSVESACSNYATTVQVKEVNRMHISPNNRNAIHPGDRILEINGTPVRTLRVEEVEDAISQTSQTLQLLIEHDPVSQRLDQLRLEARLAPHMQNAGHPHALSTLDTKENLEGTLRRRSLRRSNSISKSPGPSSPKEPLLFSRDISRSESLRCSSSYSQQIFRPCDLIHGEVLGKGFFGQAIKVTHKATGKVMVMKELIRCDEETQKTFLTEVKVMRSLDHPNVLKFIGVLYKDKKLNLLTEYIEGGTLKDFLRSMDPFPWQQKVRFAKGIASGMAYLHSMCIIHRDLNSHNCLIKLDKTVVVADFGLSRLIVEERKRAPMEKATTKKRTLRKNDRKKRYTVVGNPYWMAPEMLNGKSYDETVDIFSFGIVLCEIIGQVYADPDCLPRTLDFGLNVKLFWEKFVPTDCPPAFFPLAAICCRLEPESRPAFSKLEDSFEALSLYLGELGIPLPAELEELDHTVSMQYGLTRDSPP
structure (smiles),measurement,setting,value
Cc1nc(Nc2ncc(C(=O)Nc3c(C)cccc3Cl)s2)cc(N2CCN(CC(=O)NCCCCNC(=O)COc3cccc4c3C(=O)N(C3CCC(=O)NC3=O)C4=O)CC2)n1 (stereo not shown) [DB-3-291],selectivity among CSK-degrading compounds,CSK,greatest selectivity
same,degradation of CSK,CSK; compared with the 15 library compounds that target CSK,strongest degradation
Cc1ncsc1-c1ccc([C@H](C)NC(=O)[C@@H]2C[C@@H](O)CN2C(=O)[C@@H](NC(=O)CCOCCOCCNc2nccc(-c3sc(C(C)(C)C)nc3-c3cccc(NS(=O)(=O)c4c(F)cccc4F)c3F)n2)C(C)(C)C)cc1 [DD-03–156],degradation of LIMK2,LIMK2,potent and selective degradation
same,degradation of CDK17,CDK17,potent and selective degradation; also recorded: exquisite
Cc1ccc(C(=O)Nc2ccc(CN3CCN(CCCOCCOCCOCCNC(=O)COc4cccc5c4C(=O)N(C4CCC(=O)NC4=O)C5=O)CC3)c(C(F)(F)F)c2)cc1C#Cc1cnc2cccnn12 (stereo not shown) [SB1-G-187],YES1 complex formation with CRBN and degradation,YES1,complex formation and degradation
same,"GCK engagement, inhibition of probe binding",GCK [1],94 %I
same,degradation of GCK,GCK [2],degraded
same,IRAK1 complex formation with CRBN and degradation,IRAK1,complex formation and degradation
same,LYN complex formation with CRBN and degradation,LYN,complex formation and degradation
CC(C)S(=O)(=O)c1ccccc1Nc1nc(Nc2ccc(N3CCN(CCOCCNC(=O)CNc4cccc5c4C(=O)N(C4CCC(=O)NC4=O)C5=O)CC3)cc2)ncc1Cl (stereo not shown) [SK-3–91],YES1 complex formation with CRBN and degradation,YES1,complex formation does not predict degradation
same,degradation of BUB1,BUB1,degraded
same,"GCK engagement, inhibition of probe binding",GCK [1],50 %I
same,degradation of GCK,GCK [2],not degraded
same,enriched proteins in the CRBN AP-MS,FLAG-tagged CRBN,fewer enriched proteins
same,transcript levels,MOLT-4 cells; 8 and 12 h time points,complete transcriptional collapse
same,transcript levels,MOLT-4 cells; up until the 4 h time point,largely unchanged
same,"transcriptional changes of CAMKK2, DNAPK, IKKe and JAK2",MOLT-4 cells; 4 h treatment,no upregulation
COc1cc(Nc2ncc3c(n2)-c2ccc(Cl)cc2C(c2c(F)cccc2OC)=NC3)ccc1C(=O)NCCCOCCOCCOCCCNC(=O)COc1cccc2c1C(=O)N(C1CCC(=O)NC1=O)C2=O (stereo not shown) [dAURK-4],degradation of AURKA,AURKA (Aurora A),potent and selective degradation
same,antiproliferative effects,[3],superior antiproliferative effects
